# Experimental data taken from ChEMBL document CHEMBL5505983, “Design, synthesis, and molecular modeling studies of novel 2-quinolone-1,2,3-triazole-α-aminophosphonates hybrids as dual antiviral and antibacterial agents” (Eur J Med Chem, 2024).
# Columns and labels:
# [1] = test system: Escherichia coli; test: Ratio of MBC to MIC for Escherichia coli CIP 53154; format: functional
# [2] = test system: Yellow fever virus; test: Antiviral activity against Yellow fever virus infected in human Huh-7 cells assessed as inhibition of cytopathic effect by microscopy based analysis; format: functional, organism-based
# [3] = Cytotoxicity against African green monkey Vero A cells; format: toxicity, cell-based; conditions: chlorocebus sabaeus
# [4] = Cytotoxicity against human HeLa-RH cells; format: toxicity, cell-based
# [5] = test system: Staphylococcus aureus; test: Bactericidal activity against Staphylococcus aureus CIP 54127; format: functional
# [6] = test system: Enterococcus faecalis; test: Antibacterial activity against Enterococcus faecalis assessed as reduction in bacterial growth by micro-broth dilution method; format: functional
# [7] = test system: Human rhinovirus sp.; test: Antiviral activity against Human rhinovirus A2 infected in human HeLa-RH cells assessed as inhibition of cytopathic effect by microscopy based analysis; format: functional, organism-based
# [8] = test system: Staphylococcus aureus; test: Antibacterial activity against Staphylococcus aureus CIP 54127 assessed as reduction in bacterial growth by micro-broth dilution method; format: functional
# [9] = Cytotoxicity against African green monkey Vero E6 cells; format: toxicity, cell-based, Vero C1008; conditions: chlorocebus sabaeus
# [10] = test system: Staphylococcus aureus; test: Ratio of MBC to MIC for Staphylococcus aureus CIP 54127; format: functional
# [11] = test system: Pseudomonas aeruginosa; test: Ratio of MBC to MIC for Pseudomonas aeruginosa CIP A22; format: functional
# [12] = Cytotoxicity against human RD cells; format: toxicity, cell-based
# [13] = test system: Enterococcus faecalis; test: Ratio of MBC to MIC for Enterococcus faecalis; format: functional
# [14] = test system: Enterovirus A71; test: Antiviral activity against human EV71 infected in human RD cells assessed as inhibition of cytopathic effect by microscopy based analysis; format: functional, organism-based; conditions: Enterovirus A
# [15] = test system: Pseudomonas aeruginosa; test: Bactericidal activity against Pseudomonas aeruginosa CIP A22; format: functional
# [16] = test system: Escherichia coli; test: Bactericidal activity against Escherichia coli CIP 53154; format: functional
# [17] = Cytotoxicity against human Huh-7 cells; format: toxicity, cell-based
# [18] = test system: Escherichia coli; test: Antibacterial activity against Escherichia coli CIP 53154 assessed as reduction in bacterial growth by micro-broth dilution method; format: functional
# [19] = test system: Zika virus; test: Antiviral activity against Zika virus infected in african green monkey Vero E6 cells assessed as inhibition of cytopathic effect by microscopy based analysis; format: functional, organism-based; conditions: Vero C1008
# [20] = test system: Enterococcus faecalis; test: Bactericidal activity against Enterococcus faecalis; format: functional
# [21] = test system: Human rhinovirus sp.; test: Antiviral activity against Human rhinovirus B14 infected in human HeLa-RH cells assessed as inhibition of cytopathic effect by microscopy based analysis; format: functional, organism-based
# [22] = test system: Chikungunya virus; test: Antiviral activity against CHIKV infected in African green monkey Vero A cells assessed as inhibition of cytopathic effect by microscopy based analysis; format: functional, organism-based
# [23] = test system: Pseudomonas aeruginosa; test: Antibacterial activity against Pseudomonas aeruginosa CIP A22 assessed as reduction in bacterial growth by micro-broth dilution method; format: functional
SMILES,Ratio [1],IC50 [2] [µM],CC50 [3] [µM],CC50 [4] [µM],MBC [5] [µM],MIC [6] [µM],IC50 [7] [µM],MIC [8] [µM],CC50 [9] [µM],Ratio [10],Ratio [11],CC50 [12] [µM],Ratio [13],IC50 [14] [µM],MBC [15] [µM],MBC [16] [µM],MIC [18] [µM],MBC [20] [µM],IC50 [22] [µM],MIC [23] [µM],also measured
CCOP(=O)(OCC)C(Nc1ccccc1Cl)c1cc(Cn2cc(Cn3c(=O)cc(C)c4ccccc43)nn2)ccc1O (configuration not stated),1,> 100,24.3,52.1,500,60,> 1.23,500,> 33.3,1,1,> 100,1,> 100,1010,260,260,60,> 33.3,1010,CC50 [17]: 30.5 µM; IC50 [19]: > 100 µM; IC50 [21]: > 100 µM
CCN(CC)CCCC(C)Nc1ccnc2cc(Cl)ccc12 (configuration not stated) [CHLOROQUINE],,,89,,,,,,,,,,,,,,,,11,,
CO[C@H]1/C=C/O[C@@]2(C)Oc3c(C)c(O)c4c(O)c(c(/C=N/N5CCN(C)CC5)c(O)c4c3C2=O)NC(=O)/C(C)=C\C=C\[C@H](C)[C@H](O)[C@@H](C)[C@@H](O)[C@@H](C)[C@H](OC(C)=O)[C@@H]1C [RIFAMPIN],2.03,,,,150,300,,80,,1.88,2.03,,1,,610,610,300,300,,610,
CCOP(=O)(OCC)C(Nc1ccccc1OC)c1cc(Cn2cc(Cn3c(=O)cc(C)c4cc(F)ccc43)nn2)ccc1O (configuration not stated),1,> 100,40.8,> 100,490,60,> 1.23,250,> 33.3,1.96,1.99,> 100,1,> 100,1970,1970,1970,60,> 100,1970,CC50 [17]: 88 µM; IC50 [19]: > 100 µM; IC50 [21]: > 100 µM
CCOP(=O)(OCC)C(Nc1ccc(F)cc1)c1cc(Cn2cc(Cn3c(=O)cc(C)c4cc(F)ccc43)nn2)ccc1O (configuration not stated),1,> 100,> 100,> 100,500,130,> 3.7,500,> 100,1,2,> 100,1,> 100,8020,1010,1010,130,> 100,8020,CC50 [17]: 29.3 µM; IC50 [19]: > 100 µM; IC50 [21]: > 100 µM
CCOP(=O)(OCC)C(Nc1ccccc1OC)c1cc(Cn2cc(Cn3c(=O)cc(C)c4ccccc43)nn2)ccc1O (configuration not stated),2.04,> 100,77.2,> 33.3,500,2020,> 1.23,260,> 33.3,1.92,1,> 100,1,> 100,1020,1020,500,2020,> 100,1020,CC50 [17]: 51.8 µM; IC50 [19]: > 100 µM; IC50 [21]: > 100 µM
CC1(C)S[C@@H]2[C@H](NC(=O)[C@H](N)c3ccccc3)C(=O)N2[C@H]1C(=O)O [AMPICILLIN],2.04,,,,270,260,,270,,1,1.96,,1,,530,530,260,260,,530,
CCOP(=O)(OCC)C(Nc1ccc(C)cc1)c1cc(Cn2cc(Cn3c(=O)cc(C)c4cc(F)ccc43)nn2)ccc1O (configuration not stated),1,> 100,> 33.3,> 100,240,60,> 11.1,240,> 100,1,2,> 100,1,> 100,7350,930,930,60,> 100,7350,CC50 [17]: > 100 µM; IC50 [19]: > 100 µM; IC50 [21]: > 100 µM
CCOP(=O)(OCC)C(Nc1ccccc1)c1cc(Cn2cc(Cn3c(=O)cc(C)c4cc(F)ccc43)nn2)ccc1O (configuration not stated),1,> 100,> 100,> 100,1040,2060,> 1.23,510,> 33.3,2.04,2,> 100,1,> 100,8260,1040,1040,2060,> 100,8260,CC50 [17]: 46.2 µM; IC50 [19]: > 100 µM; IC50 [21]: > 100 µM
CCOP(=O)(OCC)C(Nc1ccc(C)cc1)c1cc(Cn2cc(Cn3c(=O)cc(C)c4ccccc43)nn2)ccc1O (configuration not stated),1,> 100,> 100,> 100,520,70,> 3.7,520,> 100,1,2,> 100,1,> 100,4160,520,520,70,> 100,4160,CC50 [17]: 27.9 µM; IC50 [19]: > 100 µM; IC50 [21]: > 100 µM
